Assay: Solid-state stability of crystalline forms on storage, XRPD compared before and after
Type: physicochemical
Description: X-Ray powder diffraction patterns (XRPD) were obtained for the crystalline form described herein under the following conditions: • Equipment: Rigaku Smart-Lab • Scan range: 2 to 40° (2θ) • Scan speed: 3° (2θ) per minute • Step width: 0.02° (2θ) • X-ray information: Cu Kα, λ=1.54 Å, 40 kV/44 mA
Approximately 5-10 mg of the sample was gently applied on a low background Si holder and subjected to XRPD scanning.
In addition, another sample of 5-10 milligrams of crystalline Form A was maintained at a temperature of 22±2° C. and relative humidity of 59% for 144 hours.
A sample of 5-10 milligrams of crystalline Form B was maintained at a temperature of 22±2° C. and relative humidity of 59% for 120 hours.
In addition, another sample of 10-50 grams of crystalline Form B was maintained at a temperature of 22±2° C. and relative humidity of 0% for 120 hours.
In addition, a similar sample of crystalline Form B was maintained at a temperature of 40° C. for 16 hours.

SMILES | change of XRPD pattern / crystal form after storage (22±2° C., relative humidity 0%, 120 hours) | change of XRPD pattern / crystal form after storage (22±2° C., relative humidity 59%, 120 hours) | change of XRPD pattern / crystal form after storage (40° C., 16 hours) | change of XRPD pattern / crystal form after storage (22±2° C., relative humidity 0%, 144 hours) | change of XRPD pattern / crystal form after storage (22±2° C., relative humidity 59%, 144 hours) | change of XRPD pattern / crystal form after storage (40° C., 25 minutes)
NC(=O)CCC/C=C\C[C@@H]1[C@@H](/C=C/[C@@H](O)CCc2cc(Cl)sc2Cl)[C@H](O)C[C@@H]1O [Form B, 7-[3α,5α-dihydroxy-2-(3α-hydroxy-5-(3-(2,5-dichloro)thienyl)-1E-pentenyl)cyclopentyl]-5Z-heptenamide] | poorly-crystalline mixture of Forms A and B | remained substantially unchanged | a substantial portion of crystalline Form B had converted to the amorphous form | – | – | –
NC(=O)CCC/C=C\C[C@@H]1[C@@H](/C=C/[C@@H](O)CCc2cc(Cl)sc2Cl)[C@H](O)C[C@@H]1O [Form A, 7-[3α,5α-dihydroxy-2-(3α-hydroxy-5-(3-(2,5-dichloro)thienyl)-1E-pentenyl)cyclopentyl]-5Z-heptenamide] | – | – | – | remained substantially unchanged | a substantial portion of crystalline Form A had converted to crystalline Form B | lack of significant change

From patent publication US9353079B2, “Solid forms of an alpha, omega di-substituted dihydroxy cyclopentyl compound and methods for the preparation and use thereof” (Allergan, Inc., priority 2013, dated 2016)
